In ChEMBL document CHEMBL1201861, “Genomics of Drug Sensitity in Cancer screening data, Wellcome Trust Sanger Institute”:

test system: NCI-H2405; assay: cells; type: functional, cell-based; details: Homo sapiens;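 note: growth inhibition of the human cell line, read out with a cell viability assay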
Description: SANGER: Inhibition of human NCI-H2405 cell growth in a cell viability assay.

| Compound | IC50 |
| --- | --- |
| O=C1NC(=O)c2c1c(-c1ccccc1Cl)cc1[nH]c3ccc(O)cc3c21 | > 2000 nM |

test system: EFO-27; assay: cells; type: functional, cell-based; details: Homo sapiens;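 note: growth inhibition of EFO-27 cells, read out with a cell viability assay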
Description: SANGER: Inhibition of human EFO-27 cell growth in a cell viability assay.

| Compound | IC50 |
| --- | --- |
| O=C1NC(=O)c2c1c(-c1ccccc1Cl)cc1[nH]c3ccc(O)cc3c21 | > 2000 nM |

test system: GAMG; assay: cells; type: functional, cell-based; details: Homo sapiens;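 note: cell growth inhibition measured by a viability assay in the GAMG human cell line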
Description: SANGER: Inhibition of human GAMG cell growth in a cell viability assay.

| Compound | IC50 |
| --- | --- |
| O=C1NC(=O)c2c1c(-c1ccccc1Cl)cc1[nH]c3ccc(O)cc3c21 | > 2000 nM |

test system: HCC1954; assay: cells; type: functional, cell-based; details: Homo sapiens;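 note: growth inhibition of human HCC1954 cells, read out with a cell viability assay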
Description: SANGER: Inhibition of human HCC1954 cell growth in a cell viability assay.

| Compound | IC50 |
| --- | --- |
| O=C1NC(=O)c2c1c(-c1ccccc1Cl)cc1[nH]c3ccc(O)cc3c21 | > 2000 nM |

test system: HGC-27; assay: cells; type: functional, cell-based; details: Homo sapiens;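 note: growth inhibition of human HGC-27 cells, read out in a cell viability assay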
Description: SANGER: Inhibition of human HGC-27 cell growth in a cell viability assay.

| Compound | IC50 |
| --- | --- |
| O=C1NC(=O)c2c1c(-c1ccccc1Cl)cc1[nH]c3ccc(O)cc3c21 | > 2000 nM |

test system: NCI-H522; assay: cells; type: functional, cell-based; details: Homo sapiens;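 note: cell viability assay measuring growth inhibition of human NCI-H522 cells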
Description: SANGER: Inhibition of human NCI-H522 cell growth in a cell viability assay.

| Compound | IC50 |
| --- | --- |
| O=C1NC(=O)c2c1c(-c1ccccc1Cl)cc1[nH]c3ccc(O)cc3c21 | > 2000 nM |

test system: HLE; assay: cells; type: functional, cell-based; details: Homo sapiens;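 note: growth inhibition of human HLE cells, read out by a cell viability assay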
Description: SANGER: Inhibition of human HLE cell growth in a cell viability assay.

| Compound | IC50 |
| --- | --- |
| O=C1NC(=O)c2c1c(-c1ccccc1Cl)cc1[nH]c3ccc(O)cc3c21 | > 2000 nM |

test system: A-427; assay: cells; type: functional, cell-based; details: Homo sapiens;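 note: growth inhibition of human A-427 cells, read out by a cell viability assay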
Description: SANGER: Inhibition of human A427 cell growth in a cell viability assay.

| Compound | IC50 |
| --- | --- |
| O=C1NC(=O)c2c1c(-c1ccccc1Cl)cc1[nH]c3ccc(O)cc3c21 | > 2000 nM |

test system: CAMA-1; assay: cells; type: functional, cell-based; details: Homo sapiens;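 note: growth inhibition of CAMA-1 cells, read out with a cell viability assay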
Description: SANGER: Inhibition of human CAMA-1 cell growth in a cell viability assay.

| Compound | IC50 |
| --- | --- |
| O=C1NC(=O)c2c1c(-c1ccccc1Cl)cc1[nH]c3ccc(O)cc3c21 | > 2000 nM |

test system: HuP-T3; assay: cells; type: functional, cell-based; details: Homo sapiens;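 note: HuP-T3 cell growth inhibition, read out with a cell viability assay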
Description: SANGER: Inhibition of human HuP-T3 cell growth in a cell viability assay.

| Compound | IC50 |
| --- | --- |
| O=C1NC(=O)c2c1c(-c1ccccc1Cl)cc1[nH]c3ccc(O)cc3c21 | > 2000 nM |

test system: FaDu; assay: cells; type: functional, cell-based; details: Homo sapiens;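 note: cell viability readout of growth inhibition in FaDu cells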
Description: SANGER: Inhibition of human FADU cell growth in a cell viability assay.

| Compound | IC50 |
| --- | --- |
| O=C1NC(=O)c2c1c(-c1ccccc1Cl)cc1[nH]c3ccc(O)cc3c21 | > 2000 nM |

test system: MKN-45; assay: cells; type: functional, cell-based; details: Homo sapiens;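 note: growth inhibition of human MKN-45 cells, measured with a cell viability assay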
Description: SANGER: Inhibition of human MKN45 cell growth in a cell viability assay.

| Compound | IC50 |
| --- | --- |
| O=C1NC(=O)c2c1c(-c1ccccc1Cl)cc1[nH]c3ccc(O)cc3c21 | 852 nM |

test system: T-24; assay: cells; type: functional, cell-based; details: Homo sapiens;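 note: growth inhibition of T-24 cells, read out with a cell viability assay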
Description: SANGER: Inhibition of human T-24 cell growth in a cell viability assay.

| Compound | IC50 |
| --- | --- |
| O=C1NC(=O)c2c1c(-c1ccccc1Cl)cc1[nH]c3ccc(O)cc3c21 | > 2000 nM |

test system: UO-31; assay: cells; type: functional, cell-based; details: Homo sapiens;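 note: cell viability assay measuring inhibition of cell growth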
Description: SANGER: Inhibition of human U031 cell growth in a cell viability assay.

| Compound | IC50 |
| --- | --- |
| O=C1NC(=O)c2c1c(-c1ccccc1Cl)cc1[nH]c3ccc(O)cc3c21 | > 2000 nM |

test system: SW1990; assay: cells; type: functional, cell-based; details: Homo sapiens;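 note: cell growth inhibition determined with a viability assay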
Description: SANGER: Inhibition of human SW1990 cell growth in a cell viability assay.

| Compound | IC50 |
| --- | --- |
| O=C1NC(=O)c2c1c(-c1ccccc1Cl)cc1[nH]c3ccc(O)cc3c21 | 1180 nM |

test system: HCC1395; assay: cells; type: functional, cell-based; details: Homo sapiens;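 note: growth inhibition of HCC1395 cells, read out by a cell viability assay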
Description: SANGER: Inhibition of human HCC1395 cell growth in a cell viability assay.

| Compound | IC50 |
| --- | --- |
| O=C1NC(=O)c2c1c(-c1ccccc1Cl)cc1[nH]c3ccc(O)cc3c21 | > 2000 nM |

test system: NCI-H810; assay: cells; type: functional, cell-based; details: Homo sapiens;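 note: IC50 reflects inhibition of cancer cell line growth, read out with a cell viability assay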
Description: SANGER: Inhibition of human NCI-H810 cell growth in a cell viability assay.

| Compound | IC50 |
| --- | --- |
| O=C1NC(=O)c2c1c(-c1ccccc1Cl)cc1[nH]c3ccc(O)cc3c21 | > 2000 nM |

test system: NY; assay: cells; type: functional, cell-based; details: Homo sapiens
Description: SANGER: Inhibition of human NY cell growth in a cell viability assay.

| Compound | IC50 |
| --- | --- |
| O=C1NC(=O)c2c1c(-c1ccccc1Cl)cc1[nH]c3ccc(O)cc3c21 | > 2000 nM |

test system: MKN-1; assay: cells; type: functional, cell-based; details: Homo sapiens;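 note: growth inhibition of human MKN1 cells, read out by a cell viability measurement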
Description: SANGER: Inhibition of human MKN1 cell growth in a cell viability assay.

| Compound | IC50 |
| --- | --- |
| O=C1NC(=O)c2c1c(-c1ccccc1Cl)cc1[nH]c3ccc(O)cc3c21 | > 2000 nM |

test system: HN; assay: cells; type: functional, cell-based; details: Homo sapiens
Description: SANGER: Inhibition of human HN cell growth in a cell viability assay.

| Compound | IC50 |
| --- | --- |
| O=C1NC(=O)c2c1c(-c1ccccc1Cl)cc1[nH]c3ccc(O)cc3c21 | 1300 nM |

test system: C3A; assay: cells; type: functional, cell-based; details: Homo sapiens;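 note: growth inhibition of C3A human cells, quantified with a cell viability readout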
Description: SANGER: Inhibition of human C3A cell growth in a cell viability assay.

| Compound | IC50 |
| --- | --- |
| O=C1NC(=O)c2c1c(-c1ccccc1Cl)cc1[nH]c3ccc(O)cc3c21 | > 2000 nM |

test system: HTC-C3; assay: cells; type: functional, cell-based; details: Homo sapiens;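 note: inhibition of cell growth, read out with a cell viability assay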
Description: SANGER: Inhibition of human HTC-C3 cell growth in a cell viability assay.

| Compound | IC50 |
| --- | --- |
| O=C1NC(=O)c2c1c(-c1ccccc1Cl)cc1[nH]c3ccc(O)cc3c21 | 995 nM |

test system: MC-IXC; assay: cells; type: functional, cell-based; details: Homo sapiens;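 note: growth inhibition of MC-IXC cells, read out with a cell viability assay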
Description: SANGER: Inhibition of human MC-IXC cell growth in a cell viability assay.

| Compound | IC50 |
| --- | --- |
| O=C1NC(=O)c2c1c(-c1ccccc1Cl)cc1[nH]c3ccc(O)cc3c21 | > 2000 nM |

test system: KYSE-270; assay: cells; type: functional, cell-based; details: Homo sapiens;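 note: cell growth inhibition measured with a viability assay in the human KYSE-270 line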
Description: SANGER: Inhibition of human KYSE-270 cell growth in a cell viability assay.

| Compound | IC50 |
| --- | --- |
| O=C1NC(=O)c2c1c(-c1ccccc1Cl)cc1[nH]c3ccc(O)cc3c21 | 1480 nM |

test system: LCLC-103H cell line; assay: cells; type: functional, cell-based; details: Homo sapiens
Description: SANGER: Inhibition of human LCLC-103H cell growth in a cell viability assay.

| Compound | IC50 |
| --- | --- |
| O=C1NC(=O)c2c1c(-c1ccccc1Cl)cc1[nH]c3ccc(O)cc3c21 | > 2000 nM |

test system: MEL-HO; assay: cells; type: functional, cell-based; details: Homo sapiens
Description: SANGER: Inhibition of human MEL-HO cell growth in a cell viability assay.

| Compound | IC50 |
| --- | --- |
| O=C1NC(=O)c2c1c(-c1ccccc1Cl)cc1[nH]c3ccc(O)cc3c21 | > 2000 nM |

test system: RD; assay: cells; type: functional, cell-based; details: Homo sapiens
Description: SANGER: Inhibition of human RD cell growth in a cell viability assay.

| Compound | IC50 |
| --- | --- |
| O=C1NC(=O)c2c1c(-c1ccccc1Cl)cc1[nH]c3ccc(O)cc3c21 | > 2000 nM |

test system: NCI-H630; assay: cells; type: functional, cell-based; details: Homo sapiens;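 note: growth inhibition of NCI-H630 cells, read out with a cell viability assay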
Description: SANGER: Inhibition of human NCI-H630 cell growth in a cell viability assay.

| Compound | IC50 |
| --- | --- |
| O=C1NC(=O)c2c1c(-c1ccccc1Cl)cc1[nH]c3ccc(O)cc3c21 | 1930 nM |

test system: CAPAN-1; assay: cells; type: functional, cell-based; details: Homo sapiens;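 note: growth suppression of CAPAN-1 cells, read out by a cell viability assay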
Description: SANGER: Inhibition of human CAPAN-1 cell growth in a cell viability assay.

| Compound | IC50 |
| --- | --- |
| O=C1NC(=O)c2c1c(-c1ccccc1Cl)cc1[nH]c3ccc(O)cc3c21 | > 2000 nM |

test system: NCI-H1437; assay: cells; type: functional, cell-based; details: Homo sapiens;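 note: growth inhibition of human NCI-H1437 cells, read out by a cell viability assay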
Description: SANGER: Inhibition of human NCI-H1437 cell growth in a cell viability assay.

| Compound | IC50 |
| --- | --- |
| O=C1NC(=O)c2c1c(-c1ccccc1Cl)cc1[nH]c3ccc(O)cc3c21 | > 2000 nM |

test system: HuCCT-1; assay: cells; type: functional, cell-based, HuCCT1; details: Homo sapiens;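 note: growth inhibition of HuCCT-1 cells, read out by a cell viability assay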
Description: SANGER: Inhibition of human HuCCT1 cell growth in a cell viability assay.

| Compound | IC50 |
| --- | --- |
| O=C1NC(=O)c2c1c(-c1ccccc1Cl)cc1[nH]c3ccc(O)cc3c21 | > 2000 nM |

test system: SW1710; assay: cells; type: functional, cell-based; details: Homo sapiens;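 note: growth inhibition of SW1710 cells, determined with a cell viability assay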
Description: SANGER: Inhibition of human SW1710 cell growth in a cell viability assay.

| Compound | IC50 |
| --- | --- |
| O=C1NC(=O)c2c1c(-c1ccccc1Cl)cc1[nH]c3ccc(O)cc3c21 | > 2000 nM |

test system: MDA-MB-157; assay: cells; type: functional, cell-based; details: Homo sapiens
Description: SANGER: Inhibition of human MDA-MB-157 cell growth in a cell viability assay.

| Compound | IC50 |
| --- | --- |
| O=C1NC(=O)c2c1c(-c1ccccc1Cl)cc1[nH]c3ccc(O)cc3c21 | > 2000 nM |

test system: U-251; assay: cells; type: functional, cell-based; details: Homo sapiens;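 note: growth inhibition of human U-251 cells, read out through a cell viability assay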
Description: SANGER: Inhibition of human U251 cell growth in a cell viability assay.

| Compound | IC50 |
| --- | --- |
| O=C1NC(=O)c2c1c(-c1ccccc1Cl)cc1[nH]c3ccc(O)cc3c21 | > 2000 nM |

test system: SNU-449; assay: cells; type: functional, cell-based; details: Homo sapiens
Description: SANGER: Inhibition of human SNU-449 cell growth in a cell viability assay.

| Compound | IC50 |
| --- | --- |
| O=C1NC(=O)c2c1c(-c1ccccc1Cl)cc1[nH]c3ccc(O)cc3c21 | > 2000 nM |

test system: CAL-39; assay: cells; type: functional, cell-based; details: Homo sapiens;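 note: cell viability assay measuring growth inhibition of CAL-39 cells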
Description: SANGER: Inhibition of human CAL-39 cell growth in a cell viability assay.

| Compound | IC50 |
| --- | --- |
| O=C1NC(=O)c2c1c(-c1ccccc1Cl)cc1[nH]c3ccc(O)cc3c21 | > 2000 nM |

test system: Calu-3; assay: cells; type: functional, cell-based; details: Homo sapiens;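 note: growth inhibition of human Calu-3 cells, determined with a cell viability assay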
Description: SANGER: Inhibition of human Calu-3 cell growth in a cell viability assay.

| Compound | IC50 |
| --- | --- |
| O=C1NC(=O)c2c1c(-c1ccccc1Cl)cc1[nH]c3ccc(O)cc3c21 | > 2000 nM |

test system: A204; assay: cells; type: functional, cell-based; details: Homo sapiens;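 note: growth inhibition of human A204 cells, read out with a cell viability assay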
Description: SANGER: Inhibition of human A204 cell growth in a cell viability assay.

| Compound | IC50 |
| --- | --- |
| O=C1NC(=O)c2c1c(-c1ccccc1Cl)cc1[nH]c3ccc(O)cc3c21 | > 2000 nM |

test system: SW1463; assay: cells; type: functional, cell-based; details: Homo sapiens;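 note: growth inhibition of SW1463 cells, determined with a cell viability assay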
Description: SANGER: Inhibition of human SW1463 cell growth in a cell viability assay.

| Compound | IC50 |
| --- | --- |
| O=C1NC(=O)c2c1c(-c1ccccc1Cl)cc1[nH]c3ccc(O)cc3c21 | > 2000 nM |

test system: SW780; assay: cells; type: functional, cell-based; details: Homo sapiens;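 note: growth inhibition of the cells, read out with a cell viability assay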
Description: SANGER: Inhibition of human SW780 cell growth in a cell viability assay.

| Compound | IC50 |
| --- | --- |
| O=C1NC(=O)c2c1c(-c1ccccc1Cl)cc1[nH]c3ccc(O)cc3c21 | > 2000 nM |
